Read-outs that look alike come from different tables or passages of the source.
Tests used:
[1] = Pharmacokinetics of released PEGylated protease inhibitor following P.O. administration of prodrugs in rats; type: in vivo, male Sprague-Dawley rats; design: AUCall Mean: concentration or dose not given beside the values; C24 Mean: unit not given here; conditions: rats (n = 4-5); for C24 Mean: concentration at 24 hours
Procedure: (§1) Pharmacokinetic analysis of protease inhibitors described herein was conducted. To evaluate the pharmacokinetics of PEGylated protease inhibitor conjugates with releasable lipophilic attachments, test compounds were administered to male Sprague-Dawley rats.
(§2) At various times following test article administration, serial blood samples were collected from indwelling jugular vein catheters and transferred to micro-tubes containing 7.5 μL of 20% w/v K2EDTA as an anticoagulant. Following processing of the blood samples to plasma (10 minutes at 10000 rpm, Centrifuge Model: Kubota 3500), plasma concentrations of the test article or corresponding PEGylated molecule released from the test article was measured using LC-MS/MS methods. Pharmacokinetic parameters were estimated using noncompartmental methods.

[2] = Pharmacokinetics of PEGylated protease inhibitor prodrugs in rats; type: in vivo, male Sprague-Dawley rats; design: AUCall / AUC: concentration or dose not given beside the values; conditions: prodrug in plasma
Procedure: as §1, §2
Table 3 presents a summary of pharmacokinetic parameters of PEGylated protease inhibitor prodrugs, wherein Cmax is the maximum (peak) concentration, AUCall represents the area under the concentration-time curve from zero to time of last concentration value, T½ is half life, and MRTlast is the mean residence time to last observable concentration

[3] = mPEG3-atazanavir in plasma after PO administration of mPEG3-ATV or of the listed prodrug
[4] = mPEG5-atazanavir in plasma after PO administration of mPEG5-ATV or of the listed prodrug
[5] = mPEG6-atazanavir in plasma after PO administration of mPEG6-ATV or of the listed prodrug

| Compound | AUCall Mean [1, 3] [ng·h/mL] | Cmax Mean [1, 3] [ng/mL] | MRT last Mean [1, 3] [h] | Tmax* Median [1, 3] [h] | MRTlast [2] [h] | t½(z) [2] | Cmin(24 hr) ([2]; 24 hr) | AUCall ([2]; mean ± SD) [ng·h/mL] | Cmax ([2]; mean ± SD) [ng/mL] | also measured |
| --- | --- | --- | --- | --- | --- | --- | --- | --- | --- | --- |
| CCOC(C)OC(CN(Cc1ccc(-c2ccccn2)cc1)NC(=O)C(NC(=O)OC)C(C)(C)C)C(Cc1ccccc1)NC(=O)C(NC(=O)OCCOCCOCCOC)C(C)(C)C (mixture of isomers) [1-ethoxyethoxy-mPEG3-Atazanivir, ethoxy ethoxy mPEG3-atazanavir] | 500 | 154 | 2.35 | 0.500 | 1.62 ± 0.350 | 2.01 ± 0.88 h | 0.370 ± 0.455 ng/mL | 3950 ± 2740 | 1370 ± 549 | – |
| COCCOCCOCCOC(=O)N[C@H](C(=O)N[C@@H](Cc1ccccc1)[C@H](CN(Cc1ccc(-c2ccccn2)cc1)NC(=O)[C@@H](NC(=O)OC)C(C)(C)C)OCOC)C(C)(C)C [mPEG3-Atazanavir-methyl methyl ether, mPEG3-Atazanavir Methyl Methyl Ether] | 110 | 23.0 | 3.26 | 1.00 | 3.00 ± 0.350 | 4.03 ± 1.33 h | 6.52 ± 3.57 ng/mL | 7740 ± 935 | 1680 ± 150 | – |
| COCCOCCOCCOC(=O)N[C@H](C(=O)N[C@@H](Cc1ccccc1)[C@H](CN(Cc1ccc(-c2ccccn2)cc1)NC(=O)[C@@H](NC(=O)OC)C(C)(C)C)OC(=O)[C@H](Cc1ccccc1)NC(=O)[C@@H](N)CC(C)C)C(C)(C)C.Cl [Leu-Phe-mPEG3-Atazanavir, Leu-Phe-mPEG3-Atazanavir Hydrochloride] | 448 | 84.9 | 7.56 | 2.00 | – | – | – | – | – | C24 Mean [1, 3]: 2.35; MRT last ([2]; male, Sprague-Dawley, rat, in vivo): 3.42 ± 0.916 h; concentration at 24 hr ([2]; male, Sprague-Dawley, rat, in vivo, 24 hr, read-out: Cmin(24 hr)): 0.154 ± 0.307 ng/mL; AUC ([2]; male, Sprague-Dawley, rat, in vivo, mean ± SD): 157 ± 30.3 ng·h/mL; Cmax ([2]; male, Sprague-Dawley, rat, in vivo, mean ± SD, read-out: Cmax): 41.9 ± 7.92 ng/mL; half-life ([2]; male, Sprague-Dawley, rat, in vivo, read-out: t½(z) (converted)): 3.2 ± 0.981 h |
| COCCOCCOCCOCCOCCOC(=O)N[C@H](C(=O)N[C@@H](Cc1ccccc1)[C@H](CN(Cc1ccc(-c2ccccn2)cc1)NC(=O)[C@@H](NC(=O)OC)C(C)(C)C)OC(=O)[C@H](Cc1ccccc1)NC(=O)[C@@H](N)Cc1ccccc1)C(C)(C)C.Cl [Phe-Phe-mPEG5-Atazanavir HCl, Phe-Phe-mPEG5-atazanavir hydrochloride] | – | – | – | – | 1.49 ± 0.412 | 2.01 h | – | 31.8 ± 13.7 | 17.9 ± 9.09 | AUCall Mean [1, 4]: 94.3 ng·h/mL; Cmax Mean [1, 4]: 12.9 ng/mL; MRT last Mean [1, 4]: 9.22 h; Tmax Median [1, 4]: 0.750 h |
| Methoxyacetate Ester-mPEG5-Atazanavir | – | – | – | – | 5.81 ± 2.95 | 6.30 ± 2.06 h | – | 298 ± 121 | 38.7 ± 13.8 | AUCall Mean [1, 4]: 298 ng·h/mL; Cmax Mean [1, 4]: 38.7 ng/mL; MRT last Mean [1, 4]: 5.81 h; Tmax Median [1, 4]: 1.50 h |
| COCCOCCOCCOC(=O)NC(C(=O)NC(Cc1ccccc1)C(CN(Cc1ccc(-c2ccccn2)cc1)NC(=O)C(NC(=O)OC)C(C)(C)C)OC(=O)CCCC(=O)OC1C(O)C(O)OC1C(O)CO)C(C)(C)C (centres unmarked) | 84.4 | 3.62 | 22.5 | 0.250 | 1.86 ± 1.49 | 3.24 ± 3.26 h | 0.177 ± 0.353 ng/mL | 221 ± 57.1 | 167 ± 89.6 | – |
| mPEG3-atazanavir-ethoxy-CME-Leu-Leu [mPEG-3-Atazanavir-Ethoxy-CM-Leu-Leu] | 148 | 6.42 | 16.5 | 9.00 | 1.01 ± 0.095 | 1.21 NC^ hr | – | 8.27 ± 3.06 | 2.95 ± 1.30 | – |
| COCCOCCOCCOCCOCCOC(=O)N[C@H](C(=O)N[C@@H](Cc1ccccc1)[C@H](CN(Cc1ccc(-c2ccccn2)cc1)NC(=O)[C@@H](NC(=O)OC)C(C)(C)C)OC(=O)[C@H](Cc1ccccc1)NC(=O)[C@@H](N)CC(C)C)C(C)(C)C.Cl [Leu-Phe-mPEG5-Atazanavir HCl, Leu-Phe-mPEG5-Atazanavir Hydrochloride] | – | – | – | – | 7.57 ± 7.76 | 0.825 h | 1.16 ± 2.31 ng/mL | 53.8 ± 34.1 | 16.5 ± 14.9 | AUCall Mean [1, 4]: 147 ng·h/mL; Cmax Mean [1, 4]: 25.6 ng/mL; MRT last Mean [1, 4]: 9.33 h; Tmax Median [1, 4]: 1.50 h |
| COCCOCCOCCOCCOCCOCCOC(=O)NC(C(=O)NC(Cc1ccccc1)C(CN(Cc1ccc(-c2ccccn2)cc1)NC(=O)C(NC(=O)OC)C(C)(C)C)OC(=O)COCCOC(=O)C(N)Cc1ccccc1)C(C)(C)C.Cl (centres unmarked) [mPEG6-Atazanavir-CME-phenylalanine HCl] | – | – | – | – | 0.948 ± 0.0741 | – | – | 6.41 ± 9.53 | 8.21 ± 12.1 | AUCall Mean [1, 5]: 351 ng·h/mL; Cmax Mean [1, 5]: 12.5 ng/mL; MRT last Mean [1, 5]: 22.1 h; Tmax Median [1, 5]: 1.00 h |
| COCCOCCOCCOCCOCCOCCOC(=O)NC(C(=O)NC(Cc1ccccc1)C(CN(Cc1ccc(-c2ccccn2)cc1)NC(=O)C(NC(=O)OC)C(C)(C)C)OC(=O)C(N)CC(C)C)C(C)(C)C.Cl [mPEG6-Atazanavir-L-Leucine] | – | – | – | – | 1.72 ± 0.237 | 2.02 ± 1.07 h | – | 107 ± 62.4 | 55.5 ± 41.6 | AUCall Mean [1, 5]: 148 ng·h/mL; Cmax Mean [1, 5]: 9.49 ng/mL; MRT last Mean [1, 5]: 10.2 h; Tmax Median [1, 5]: 0.500 h |
| CCOC(CC)OC(CN(Cc1ccc(-c2ccccn2)cc1)NC(=O)C(NC(=O)OC)C(C)(C)C)C(Cc1ccccc1)NC(=O)C(NC(=O)OCCOCCOCCOC)C(C)(C)C (mixture of isomers) [1-ethoxypropoxy-mPEG3-Atazanivir, atazanavir-1-ethoxypropoxy-mPEG3] | 849 | 153 | 3.83 | 1.00 | 2.29 ± 0.280 | 1.39 ± 0.210 h | BLQ | 8480 ± 1700 | 2060 ± 260 | – |
| Acetate Ester-mPEG5-Atazanavir [Acetate-OCHMe—OCO2-mPEG5-Atazanavir] | – | – | – | – | 6.21 ± 3.38 | 4.82 ± 3.10 h | – | 616 ± 156 | 115 ± 29.0 | AUCall Mean [1, 4]: 616 ng·h/mL; Cmax Mean [1, 4]: 115 ng/mL; MRT last Mean [1, 4]: 6.21 h; Tmax Median [1, 4]: 0.750 h |
| COCCOCCOCCOC(=O)NC(C(=O)NC(Cc1ccccc1)C(CN(Cc1ccc(-c2ccccn2)cc1)NC(=O)C(NC(=O)OC)C(C)(C)C)OC(=O)COCCOC(=O)C(Cc1ccccc1)NC(=O)C(N)Cc1ccccc1)C(C)(C)C.Cl (centres unmarked) [mPEG3-atazanavir-CME-phe-phenylalanine, mPEG3-Atazanavir-CME-PhePhenylalanine] | 120 | 6.26 | 16.2 | 1.25 | 0.696 ± 0.381 | – | – | 0.919 ± 0.968 | 0.772 ± 0.253 | – |
| CCOC(=O)OC(CN(Cc1ccc(-c2ccccn2)cc1)NC(=O)C(NC(=O)OC)C(C)(C)C)C(Cc1ccccc1)NC(=O)C(NC(=O)OCCOCCOCCOC)C(C)(C)C (centres unmarked) [mPEG3-atazanavir ethyl carbonate, mPEG3-Atazanavir Ethyl Carbonate] | 199 | 17.9 | 15.5 | 1.00 | 3.12 ± 0.285 | 6.56 ± 5.13 h | 2.42 ± 1.20 ng/mL | 4960 ± 442 | 1190 ± 294 | C24 Mean [1, 3]: 1.42 |
| COCCOCCOCCOCCOCCOCCOC(=O)NC(C(=O)NC(Cc1ccccc1)C(CN(Cc1ccc(-c2ccccn2)cc1)NC(=O)C(NC(=O)OC)C(C)(C)C)OCOC)C(C)(C)C (centres unmarked) [mPEG6-Atazanavir-methyl methyl ether, mPEG6-Atazanavir Methyl Methyl Ether] | – | – | – | – | 5.12 ± 1.74 | 11.2 ± 7.72 h | 3.47 ± 2.81 ng/mL | 1140 ± 312 | 222 ± 73 | AUCall Mean [1, 5]: 55.8 ng·h/mL; Cmax Mean [1, 5]: 11.3 ng/mL; MRT last Mean [1, 5]: 3.11 h; Tmax Median [1, 5]: 1.50 h |

From patent US20120108501A1, “Protease Inhibitors” (priority 2009, published 2012)
